Drawing on PubChem BioAssay (NCI), this text covers GI50 and TGI for 8 compounds.

Several values for one entry are separate records, joined by “and”; a condition that tells them apart may be missing. Identical values can stand only once.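 Cultured in 96-well plates, cells were exposed to test compound for 48 hours across five concentrations. At the GI50, growth is halved. TGI: total growth inhibition.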 Some results are limits rather than exact numbers.

Test systems include HCT-116 colon; PC-3 prostate; OVCAR-4 ovarian; EKVX NSCLC; RPMI-8226 leukemia; HOP-92 NSCLC; DU-145 prostate; CCRF-CEM leukemia; NCI-H226 lung; MCF7 breast.
Test in all cases: inhibition of tumour cell growth, NCI panel, 48 h

As for `CC(=O)O.CN1[CH-]N(Cc2ccc(C#N)cc2)c2ccccc21.[Ag+]`, the GI50 in the assay with HCT-116 colon is 18.5 µM; in the assay on PC-3 prostate it was 13.5 µM; in the assay with OVCAR-4 ovarian, 15.8 µM; in the assay on EKVX NSCLC, above 100 µM; in the assay with RPMI-8226 leukemia, 31.3 µM; with HOP-92 NSCLC, 20.3 µM. In addition, the GI50 in the assay with DU-145 prostate is 17.7 µM; in the assay with CCRF-CEM leukemia, 22.2 µM; with NCI-H226 lung, 16.7 µM; in the assay with MCF7 breast, 17.8 µM. Also, the TGI in the assay with HCT-116 colon is 42.4 µM; in the assay with PC-3 prostate, 28.5 µM; in the assay on OVCAR-4 ovarian, 32.8 µM; in the assay with EKVX NSCLC, above 100 µM; in the assay on RPMI-8226 leukemia it was above 100 µM; with HOP-92 NSCLC it was 40.7 µM. Moreover, the TGI was 32.6 µM with DU-145 prostate, 61.1 µM in the assay with CCRF-CEM leukemia, 50.9 µM with NCI-H226 lung and 51.7 µM with MCF7 breast.

In the case of `Cc1ccc(OCC2CO2)c(Br)c1` (stereo not given), the TGI with HCT-116 colon is 73.3 µM; with PC-3 prostate, above 100 µM; in the assay on OVCAR-4 ovarian, 29.4 µM; with EKVX NSCLC, 35.8 µM; with RPMI-8226 leukemia, 74.9 µM; with HOP-92 NSCLC, 36.5 µM. Moreover, the TGI was above 100 µM with DU-145 prostate, above 100 µM in the assay on CCRF-CEM leukemia, 34.1 µM in the assay with NCI-H226 lung and 34.9 µM in the assay with MCF7 breast.

Take `Cc1ccc(CNc2ccc3nc(CCC4CCCCC4)[nH]c3c2)cc1`: the GI50 in the assay with HCT-116 colon is 1.95 µM; with PC-3 prostate, 2.39 µM; with OVCAR-4 ovarian, 3.23 µM; in the assay with EKVX NSCLC it was 2.12 µM; with RPMI-8226 leukemia, 2.03 µM; with HOP-92 NSCLC, 1.23 µM. Besides, the GI50 in the assay on DU-145 prostate is 3.73 µM; in the assay with CCRF-CEM leukemia, 3.29 µM; in the assay on NCI-H226 lung, 1.77 µM; with MCF7 breast, 2.14 µM. For the same compound, the TGI in the assay with HCT-116 colon was determined as 5.05 µM; in the assay on PC-3 prostate it was 8.61 µM; with OVCAR-4 ovarian, 18.7 µM; in the assay on EKVX NSCLC, 6.47 µM; with RPMI-8226 leukemia it was 4.64 µM; in the assay on HOP-92 NSCLC, 3.49 µM. The TGI in the assay with DU-145 prostate was above 100 µM; in the assay with CCRF-CEM leukemia it was above 100 µM; in the assay on NCI-H226 lung, 3.92 µM; in the assay with MCF7 breast, 6.24 µM.

For `OC1CC2CCC(C1)N2CCCN1c2ccccc2Sc2ccc(Cl)cc21` (stereo not given), the TGI in the assay on HCT-116 colon was 3.64 µM; in the assay on PC-3 prostate, 4.8 µM; with OVCAR-4 ovarian it was 13.6 µM; in the assay with EKVX NSCLC, 10.1 µM; in the assay on RPMI-8226 leukemia, 4.42 µM; in the assay on HOP-92 NSCLC it was 9.39 µM. Besides, the TGI in the assay on DU-145 prostate was 9.35 µM; in the assay on CCRF-CEM leukemia, 4.23 µM; in the assay with NCI-H226 lung, 15.2 µM; with MCF7 breast it was 3.3 µM.

In the case of `COc1ccc2cc(-c3cnc4nonc4n3)ccc2c1`, the GI50 was 2.12 µM in the assay with HCT-116 colon; 2.11 µM in the assay on PC-3 prostate; 5.99 µM with OVCAR-4 ovarian; 0.83 µM in the assay on EKVX NSCLC; 0.685 µM in the assay with RPMI-8226 leukemia; 16.1 µM with HOP-92 NSCLC. Also, the GI50 in the assay on DU-145 prostate is 24.4 µM; with CCRF-CEM leukemia, 1.62 µM; in the assay with NCI-H226 lung, 6.43 µM; with MCF7 breast it was 0.415 µM. Also, the TGI is above 100 µM in the assay with HCT-116 colon; above 100 µM with PC-3 prostate; above 100 µM with OVCAR-4 ovarian; above 100 µM with EKVX NSCLC; 17.5 µM in the assay on RPMI-8226 leukemia; above 100 µM in the assay on HOP-92 NSCLC. Further, the TGI in the assay with DU-145 prostate, with CCRF-CEM leukemia, in the assay on NCI-H226 lung and in the assay with MCF7 breast was above 100 µM in each case.

In the case of `COc1cnc2c(c1)C(=O)c1c-2n(CCCN2CCCC2)c(=O)c2cc([N+](=O)[O-])ccc12`, the GI50 with HCT-116 colon is below 0.01 µM; in the assay with PC-3 prostate, 0.0662 µM; in the assay on OVCAR-4 ovarian, 0.0848 µM; in the assay with EKVX NSCLC, 0.297 µM; in the assay with RPMI-8226 leukemia, 0.0374 µM; with HOP-92 NSCLC, 0.554 µM. The GI50 in the assay with DU-145 prostate is 0.0186 µM; with CCRF-CEM leukemia, below 0.01 µM; with NCI-H226 lung it was 0.104 µM; in the assay with MCF7 breast, below 0.01 µM. Moreover, the TGI in the assay with HCT-116 colon is 0.144 µM; in the assay on PC-3 prostate it was 13.9 µM; in the assay with OVCAR-4 ovarian, 10.5 µM; in the assay with EKVX NSCLC, 12.3 µM; in the assay with RPMI-8226 leukemia, 1.11 µM; with HOP-92 NSCLC, 15.6 µM. In addition, the TGI was determined as 1.79 µM with DU-145 prostate, 3.77 µM with CCRF-CEM leukemia, 0.715 µM with NCI-H226 lung and 1.46 µM in the assay with MCF7 breast.

For the compound `COc1ccc(Br)cc1NC(=O)Nc1cccc2c1ccn2Cc1ccnc(N)c1`, the GI50 was 5.85 µM and 5.75 µM in the assay with HCT-116 colon; 4.52 µM and 4.5 µM in the assay on PC-3 prostate; 3.85 µM and 5.52 µM in the assay with OVCAR-4 ovarian; 7.36 µM and 9.64 µM in the assay on EKVX NSCLC; 2.93 µM and 3.54 µM in the assay with RPMI-8226 leukemia; 2.18 µM and 1.96 µM in the assay with HOP-92 NSCLC. For the same compound, the GI50 is 7.86 µM and > 10 µM in the assay with DU-145 prostate; 3.92 µM and 5.43 µM in the assay on CCRF-CEM leukemia; 6.45 µM and 8.39 µM in the assay with NCI-H226 lung; 3.82 µM and 5.69 µM in the assay on MCF7 breast. Besides, the TGI in the assay with HCT-116 colon was 19.5 µM and > 10 µM; with PC-3 prostate, above 54.8 µM; with OVCAR-4 ovarian it was above 47.8 µM; with EKVX NSCLC it was above 100 µM; with RPMI-8226 leukemia, above 31.6 µM; with HOP-92 NSCLC, 7.9 µM and 8.55 µM. Besides, the TGI in the assay on DU-145 prostate is 37.9 µM and > 10 µM; in the assay with CCRF-CEM leukemia, 40 µM and > 10 µM; in the assay on NCI-H226 lung it was 48.4 µM and > 10 µM; in the assay on MCF7 breast, 20.7 µM and > 10 µM.

For `COc1cc2nc(Nc3cccc(Cl)c3)nc(N)c2cc1OC`, the GI50 in the assay on HCT-116 colon is 2.34 µM; in the assay on PC-3 prostate, 6.82 µM; in the assay with OVCAR-4 ovarian it was 10.7 µM; with EKVX NSCLC, 12.9 µM; with RPMI-8226 leukemia, 2.11 µM; with HOP-92 NSCLC, 2.59 µM. Also, the GI50 in the assay with DU-145 prostate was 6.74 µM; in the assay on CCRF-CEM leukemia, 2.36 µM; in the assay with NCI-H226 lung, 16 µM; in the assay with MCF7 breast, 4.32 µM. Moreover, the TGI with HCT-116 colon is 6.35 µM; with PC-3 prostate, 21 µM; in the assay on OVCAR-4 ovarian, 26.3 µM; with EKVX NSCLC it was 27 µM; in the assay on RPMI-8226 leukemia, 5.34 µM; in the assay on HOP-92 NSCLC, 14.6 µM. Moreover, the TGI with DU-145 prostate turned out to be 22.8 µM; with CCRF-CEM leukemia, 7.3 µM; in the assay with NCI-H226 lung, 29.5 µM; in the assay with MCF7 breast, 17.4 µM.
